Data on eight molecules can be found in patent US20230295201A1 (Gilead Sciences, Inc., priority 2020, published 2023).

Where two headings read alike, the source gives them in different places.

As usually defined, the EC50 is the concentration needed to bring the measured effect to its halfway point.

What all share (format): cell-based
One assay deals with HCV replicon 1B. The experiment in a line: HCV Rep 1B EC50 (replicon luciferase). As to conditions: Hepatitis C virus, 72 h. As to the method: (§1) Compounds were serially diluted in ten steps of 1:3 dilutions in 384-well plates. All serial dilutions were performed in four replicates per compound within the same 384-well plate. […] To each well of a black polystyrene 384-well plate (Greiner Bio-one, Monroe, NC), 90 μL of cell culture medium (without Geneticin) containing 2000 suspended HCV replicon cells was added with a Biotek μFlow workstation. For compound transfer into cell culture plates, 0.4 μL of compound solution from the compound serial dilution plate was transferred to the cell culture plate on a Biomek FX workstation. The DMSO concentration in the final assay wells was 0.44%. The plates were incubated for 3 days at 37° C. with 5% CO2 and 85% humidity. The HCV replicon assay was a multiplex assay, able to assess both cytotoxicity and antireplicon activity from the same well. The CC50 assay was performed first. The media in the 384-well cell culture plate was aspirated, and the wells were washed four times with 100 μL of PBS each, using a Biotek ELX405 plate washer. A volume of 50 μL of a solution containing 400 nM calcein AM (Anaspec, Fremont, CA) in 1×PBS was added to each well of the plate with a Biotek μFlow workstation. The plate was incubated for 30 min at room temperature before the fluorescence signal (excitation 490 nm, emission 520 nm) was measured with a Perkin-Elmer Envision plate reader. The EC50 assay was performed in the same wells as the CC50 assay. The calcein-PBS solution in the 384-well cell culture plate was aspirated with a Biotek ELX405 plate washer. A volume of 20 μL of Dual-Glo luciferase buffer (Promega, Madison, WI) was added to each well of the plate with a Biotek μFlow Workstation. The plate was incubated for 10 min at room temperature. A volume of 20 μL of a solution containing a 1:100 mixture of Dual-Glo Stop & Glo substrate (Promega, Madison, WI) and Dual-Glo Stop & Glo buffer (Promega, Madison, WI) was added to each well of the plate with a Biotek μFlow Workstation. The plate was then incubated at room temperature for 10 min before the luminescence signal was measured with a Perkin-Elmer Envision Plate Reader.
(In general: A replicon is a self-replicating genome or part of one, used to study replication in cells.)

For a further assay, the system named is RSV A strain A2. The experiment in a line: RSV HAE EC50 (intracellular RSV RNA by real-time PCR in HAE cells). As to conditions: human respiratory syncytial virus, 72 h, read-out: RSV HAE EC50. The procedure: HAE cells are cultured at the air-liquid interface and have an apical side that is exposed to the air and a basal side that is in contact with the medium. Prior to experimentation, HAE were removed from their agar-based shipping packaging and were acclimated to 37° C./5% CO2 overnight in 1 ml of HAE Assay medium (AIR-100-MM, Mattek Corp). HAE were prepared for infection by washing the apical surface twice with 400 μL of PBS (either utilizing direct pipetting methods or by running each transwell through a trough containing PBS) to remove the mucus layer. Apical chambers were drained of PBS and tapped gently onto absorbent material to remove as much PBS as possible. After washing, the cells were transferred to fresh HAE maintenance media containing 4-fold serially diluted compound, delivered to the basal side of the cell monolayer, and apically infected with 100 μL of a 1:600 dilution of RSV A strain A2 1000× stock (ABI, Columbia, MD, cat #10-124-000) in HAE assay medium for 3 hours at 37° C. in 5% CO2. The virus inoculum was removed and the apical surface of the cells was washed 3 times with PBS using either method previously described. The cells were then cultured in the presence of compound for 3 days at 37° C. Following the incubation, total RNA was extracted from the HAE cells using a MagMAX-96 Viral RNA isolation kit (Applied Biosystems, Foster City, CA, Cat #AM1836) and intracellular RSV RNA was quantified by real-time PCR. Approximately 25 ng of purified RNA was added to a PCR reaction mixture that contained 0.9 μM RSV N Forward and RSV N Reverse primers, 0.2 μM RSV N Probe and 1×Taqman RNA-to-Ct 1-Step Kit (Applied Biosystems, Foster City, CA, Cat #4392938). RNA levels were normalized using a Tagman GAPDH control primer set (Applied Biosystems, Foster City, CA, Cat #402869). Real-Time PCR Primers and Probe Used in the RSV A2 HAE Antiviral Assay: […]
For orientation: Quantitative PCR measures a nucleic acid by following its amplification.

The next assay concerns HCV replicon 2A. Description: HCV Rep 2A EC50 (replicon luciferase). As to conditions: Hepatitis C virus, 72 h. The procedure: as §1
The subject of assay [1] is Dengue serotype 2 New Guinea C (NGC) strain. Description: DENV-2 Huh-7 EC50 (qPCR in Huh7 cells). As to conditions: Dengue virus, DENV2, Huh-7, 48 h. Put shortly:
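Huh7 cells infected 2 h at 37 °C with DENV-2 NGC at MOI 0.1, then plated with graded compound doses (0.25% DMSO) in triplicate. After 48 h, viral RNA quantified by duplex TaqMan RT-qPCR against GAPDH; EC50 normalized to positive control and no-compound wells.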

The test system of assay [2] is Dengue 2, New Guinea strain (NGC). The experiment in a line: DENV-2 moDC EC50 (qPCR in human monocyte-derived dendritic cells). As to conditions: Dengue virus, DENV2, Dendritic cell, moDCs. Put shortly: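 Human moDCs (CD14+ monocytes, GM-CSF/IL-4, day 7) were infected 2 h with Vero-derived DENV-2 NGC at MOI=0.1, then plated in 10% serum with graded compound doses (0.25% DMSO) for 48 h. Viral RNA was quantified by duplex TaqMan qPCR against GAPDH; EC50 normalized to positive and no-compound controls.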

Where [3] appears, read: read-out: HCV Rep 1B EC50, replicon cells, 3 days.
Setting [4] is: read-out: HCV Rep 2A EC50, replicon cells, 3 days.
Setting [5] is: replicon cells, 3 days, read-out: HCV Rep 1B EC50.
The mark [6] stands for this setting: replicon cells, 3 days, read-out: HCV Rep 2A EC50.

Consider `CCCCCCCCCCCC(=O)OCCNP(=O)(OC[C@@]1(C#N)O[C@@H](c2ccc3c(N)ncnn23)[C@H](O)[C@@H]1O)Oc1ccccc1` (mixture of isomers) [Example 181, 2-(((((2R,3S,4R,5S)-5-(4-aminopyrrolo[2,1-f][1,2,4]triazin-7-yl)-2-cyano-3,4-dihydroxytetrahydrofuran-2-yl)methoxy)(phenoxy)phosphoryl)amino)ethyl dodecanoate], for which the EC50 in the assay with HCV replicon 1B (setting [3]) is 861 nM; with RSV A strain A2 (HAE) it was 212 nM; with HCV replicon 2A (setting [4]), 1680 nM; in assay [1], 795 nM.
Take `C[C@H](N[P@](=O)(OC[C@@]1(C#N)O[C@@H](c2ccc3c(N)ncnn23)[C@H](O)[C@@H]1O)Oc1ccccc1)C(=O)OC1CCCCC1` (single isomer, unassigned) [Example 6]: the EC50 in the assay with HCV replicon 1B (setting [3]) is 793 nM; in the assay with RSV A strain A2 (HAE) it was 20 nM; in assay [2] (48 h), over 6190 nM; with HCV replicon 2A (setting [4]), 1270 nM; in assay [1], 1630 nM.
For the molecule `C[C@H](N[P@](=O)(OC[C@@]1(C#N)O[C@@H](c2ccc3c(N)ncnn23)[C@H](O)[C@@H]1O)Oc1ccccc1)C(=O)O[C@H]1CC[C@H](C(F)(F)F)CC1` (single isomer, unassigned) [Example 18], the values for the EC50 in the assay on HCV replicon 1B (setting [3]), in the assay on RSV A strain A2 (HAE) and in the assay with HCV replicon 2A (setting [4]) were 1110 nM, 27 nM and 1480 nM, respectively.
Regarding `C[C@H](N[P@](=O)(OC[C@@]1(C#N)O[C@@H](c2ccc3c(N)ncnn23)[C@H](O)[C@@H]1O)Oc1ccccc1)C(=O)O[C@H]1CC[C@H](C(C)(C)C)CC1` (single isomer, unassigned) [Example 22], the concentration giving a half-maximal response (EC50) is 19 nM with RSV A strain A2 (HAE) and 665 nM in assay [1].
With `CCC(CC)COC(=O)[C@H](C)N[P@](=O)(OC[C@@]1(C#N)O[C@@H](c2ccc3c(N)ncnn23)[C@H](O)[C@@H]1O)Oc1ccccc1` (single isomer, unassigned) [Example 25], the EC50 in the assay with HCV replicon 1B (setting [3]) was 443 nM; with RSV A strain A2 (HAE), 152 nM; in assay [2] (48 h), 524 nM; in the assay on HCV replicon 2A (setting [4]) it was 448 nM; in assay [1], 840 nM.
Consider `CCCCCCCCCCCCCCCCCCOC[C@H](COP(=O)(O)OC[C@@]1(C#N)O[C@@H](c2ccc3c(N)ncnn23)[C@H](O)[C@@H]1O)OCc1ccccc1` [Example 96, ((2R,3S,4R,5S)-5-(4-aminopyrrolo[2,1-f][1,2,4]triazin-7-yl)-2-cyano-3,4-dihydroxytetrahydrofuran-2-yl)methyl ((R)-2-(benzyloxy)-3-(octadecyloxy)propyl) hydrogen phosphate], for which the EC50 was 30700 nM in the assay on HCV replicon 1B (setting [5]); 22400 nM in the assay on RSV A strain A2 (HAE cells, RSV A2, 3 days); over 25000 nM in assay [2] (48 hours); 47300 nM in the assay on HCV replicon 2A (setting [6]).
Take `CCCCCCCCCCCCCCCCOCCCOP(=O)(O)OC[C@@]1(C#N)O[C@@H](c2ccc3c(N)ncnn23)[C@H](O)[C@@H]1O` [Example 149, ((2R,3S,4R,5S)-5-(4-aminopyrrolo[2,1-f][1,2,4]triazin-7-yl)-2-cyano-3,4-dihydroxytetrahydrofuran-2-yl)methyl (3-(hexadecyloxy)propyl) hydrogen phosphate]: the EC50 in the assay on HCV replicon 1B (setting [5]) was 31100 nM; with RSV A strain A2 (HAE cells, RSV A2, 3 days), 188 nM; with HCV replicon 2A (setting [6]) it was over 44400 nM.
With `CCCCCCCCCCCCOC(=O)[C@H](C)NP(=O)(OC[C@@]1(C#N)O[C@@H](c2ccc3c(N)ncnn23)[C@H](O)[C@@H]1O)Oc1ccccc1` (stereo partly drawn) [Example 191, dodecyl ((((2R,3S,4R,5S)-5-(4-aminopyrrolo[2,1-f][1,2,4]triazin-7-yl)-2-cyano-3,4-dihydroxytetrahydrofuran-2-yl)methoxy)(phenoxy)phosphoryl)-L-alaninate], the EC50 was determined as 19700 nM in the assay with HCV replicon 1B (setting [3]); 11 nM in the assay with RSV A strain A2 (HAE); 1070 nM in assay [2] (48 h); 34100 nM with HCV replicon 2A (setting [4]); 13300 nM in assay [1].
